Paper PMC10716780, “The multistep oxidation of cholesterol to pregnenolone by human cytochrome P450 11A1 is highly processive” (The Journal of Biological Chemistry, 2023)
Where two headings read alike, the source gives them in different places.

Tests used:
human P450 11A1 [1] = biological target: T1, human P450 11A1 (Homo sapiens, UniProt P05108); experiment: Steady-state spectral (type I) binding titration, Kd determination
T1 construct: M A S T R S P R P F N E I P S P G D N; Met-Ala (N-terminal start residues in place of the transit peptide and Ile40) (N); made in house; host or cells: E. coli C41(DE3) with GroES/GroEL, vector pET23C(+)
T1 sequence (P05108 41-521 limits assumed): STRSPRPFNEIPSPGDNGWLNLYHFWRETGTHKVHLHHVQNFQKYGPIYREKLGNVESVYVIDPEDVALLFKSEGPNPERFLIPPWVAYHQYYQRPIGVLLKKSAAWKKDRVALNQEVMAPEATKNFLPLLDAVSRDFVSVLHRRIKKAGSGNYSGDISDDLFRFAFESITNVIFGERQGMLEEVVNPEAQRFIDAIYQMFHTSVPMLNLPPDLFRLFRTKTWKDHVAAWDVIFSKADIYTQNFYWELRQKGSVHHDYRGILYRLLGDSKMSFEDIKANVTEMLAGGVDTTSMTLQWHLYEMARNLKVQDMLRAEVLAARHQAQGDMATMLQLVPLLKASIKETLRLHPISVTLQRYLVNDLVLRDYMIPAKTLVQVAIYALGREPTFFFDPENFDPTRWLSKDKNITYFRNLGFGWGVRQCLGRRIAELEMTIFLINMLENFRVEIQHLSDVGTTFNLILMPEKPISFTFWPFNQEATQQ
Experimental: Ligand binding constants were determined from the low-to high-spin (hypsochromic) spectral transition that occurs at the P450 heme as substrate entering the active site replaces water as the sixth axial heme ligand. […] As a result, we subsequently measured koff values of the P450-sterol complexes, which were consistent with the low Kd values observed (see below). Binding titrations were repeated in the presence of Adx (1 M equivalent, Fig. 6), although no significant effect was observed, even when Adx was added in excess (10-fold with cholesterol as the substrate, data not shown).
Spectra were recorded using either an OLIS-Cary 14 or OLIS-Aminco DW2a instrument (On-Line Instrument Systems) in the split-beam mode. The OLIS-Cary 14 instrument was used in the P450 11A1 titrations with a 10-cm cell (Starna Cells, catalog no. 34-Q-100, volume 25 ml).
Kd values were determined by difference spectroscopy as previously reported ([33], [43]) but with some modifications. Briefly, a long-path quartz cuvette (10 cm, 25 ml) containing P450 11A1 (0.1 μM, in 100 mM potassium phosphate buffer (pH 7.4)) was prepared and a baseline was recorded in an OLIS-Cary 14 spectrophotometer. Where indicated, the redox partner Adx was added in equimolar concentration (0.1 μM) to P450. Sterol solutions (in 45% HPCD, w/v) were added to the cuvette, the contents of the cuvette were inverted to mix, and a spectrum was recorded (350–500 nm) after each addition. The total volume added to each cuvette was kept ≤2% (v/v, 0.25 ml) in the assay. The maximum absorbance difference (usually ΔA390−A418) was plotted against the total sterol concentration, and the data were fit to a quadratic equation in GraphPad Prism software (GraphPad, https://www.graphpad.com) to estimate the dissociation constant (Kd). A quadratic equation was used to correct the ligand concentration for the enzyme-bound concentration (used as Y=B+A/2∗1/E∗((Kd+E+X)−(Kd+E+X)^2−(4∗E∗X)) (or Y = B + (A/2)∗(1/E)∗((Kd + E + X)-sqrt((Kd + E + X)∧2 -(4∗E∗X)) in Prism software), where E = enzyme concentration, Kd = dissociation constant, and X = […]).

human P450 11A1 [2] = biological target: T2, human P450 11A1 (Homo sapiens, UniProt P05108); experiment: Kinetic modeling of single-turnover reactions (KinTek Explorer); assay type: biochemical; design: M A S T R S P R P F N E I P S P G D N; Met-Ala (N-terminal start residues in place of the transit peptide and Ile40) (N); made in house; host or cells: E. coli (P450 11A1 in C41(DE3); Adx and AdR in E. coli); conditions: for k^+ of oxidation step of enzyme-bound sterol, high Adx: high Adx (50 μM); for k^+ of oxidation step of enzyme-bound sterol, high Adx / k^+ of oxidation step of enzyme-bound sterol, low Adx: adjusted to fit single-turnover data; for k^+ of oxidation step of enzyme-bound sterol, low Adx: low Adx (5 μM)
T2 sequence (P05108 41-521 limits assumed): T1 sequence (P05108 41-521 limits assumed)
T2 sequence (P00257 59-186 partner): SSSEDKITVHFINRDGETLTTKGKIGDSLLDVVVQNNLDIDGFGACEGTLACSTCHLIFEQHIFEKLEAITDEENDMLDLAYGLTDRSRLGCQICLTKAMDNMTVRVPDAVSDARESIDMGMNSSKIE
Description: A minimal kinetic model was assembled to fit the data of the single-turnover reactions (Fig. 9) using the parameters listed in Table 2 (Fig. 14). […] Each oxidation reaction is irreversible, and thus the rates of the reverse reactions (k-2, k-4, k-6) were set to zero. The single-turnover data (Fig. 9) were fit to a single exponential to calculate the first-order decay of cholesterol, that is, the rate of cholesterol 22R-hydroxylation (k2). […] The rate of 20R-hydroxylation of 22R-OH cholesterol (k4) was estimated similarly to k2 from exponential fitting of first-order formation of the 20R,22R-(OH)2 sterol from the 22R-OH sterol.
Data were imported into KinTek Explorer software (v. 11.01, KinTek, https://kintekcorp.com/software) ([63]) as txt files and processed using an Apple computer (operating system 11.6.2). The indicated kinetic model (Table 2) was used with the enzyme and substrate concentrations, first estimating the rate of disappearance of the substrate cholesterol.

[3] = 0.10 μM P450 11A1, 10 cm cuvette, with 0.10 μM Adx, quadratic fit, read-out: Kd, (+) Adx
[4] = 0.10 μM P450 11A1, 10 cm cuvette, without Adx, quadratic fit, read-out: Kd, (−) Adx
[5] = read-out: k^+ for ligand binding to P450 11A1 (kon) used in model, set to the value determined for P450 11A1 and ketoconazole
[6] = read-out: k^− for ligand dissociation (koff) used in model, values measured by stopped-flow spectroscopy

k^+ for ligand binding to P450 11A1 (kon) used in model (human P450 11A1 [2]; set to the value determined for P450 11A1 and ketoconazole, listed as R) [M⁻¹ s⁻¹]	kon (human P450 11A1 [2]; set to the value determined for P450 11A1 and ketoconazole, read-out: k^+ for ligand binding to P450 11A1 (kon) used in model) [M⁻¹ s⁻¹]	koff (human P450 11A1 [2]; values measured by stopped-flow spectroscopy, read-out: k^− for ligand dissociation (koff) used in model) [s⁻¹]	SMILES	Kd (human P450 11A1 [1]; [3]) [µM]	Kd (human P450 11A1 [1]; [4]) [µM]	k^+ of oxidation step of enzyme-bound sterol, high Adx (human P450 11A1 [2]) [s⁻¹]	k^+ of oxidation step of enzyme-bound sterol, low Adx (human P450 11A1 [2]) [s⁻¹]	kon (human P450 11A1 [2]; [5]) [M⁻¹ s⁻¹]	koff (human P450 11A1 [2]; read-out: k^− for ligand dissociation (koff) used in model) [s⁻¹]	k^+ for ligand binding to P450 11A1 (kon) used in model (human P450 11A1 [2]; set to the value determined for P450 11A1 and ketoconazole, listed as Q) [M⁻¹ s⁻¹]	Kd (human P450 11A1 [1]; Kd, 100 nM P450 11A1, 10-cm cell, quadratic fitting) [µM]	Kd (human P450 11A1 [1]; Kd, (+) Adx, 0.10 μM P450 11A1, 10 cm cuvette, with 0.10 μM Adx, quadratic fit) [µM]	Kd (human P450 11A1 [1]; Kd, (−) Adx, 0.10 μM P450 11A1, 10 cm cuvette, without Adx, quadratic fit) [µM]	koff (human P450 11A1 [2]; [6]) [s⁻¹]	k^+ for ligand binding to P450 11A1 (kon) used in model (human P450 11A1 [2]; set to the value determined for P450 11A1 and ketoconazole, listed as P) [M⁻¹ s⁻¹]	k^− for ligand dissociation (koff) used in model (human P450 11A1 [2]; values measured by stopped-flow spectroscopy, listed as P) [s⁻¹]	k^+ for ligand binding to P450 11A1 (kon) used in model (human P450 11A1 [2]; set to the value determined for P450 11A1 and ketoconazole, listed as S) [M⁻¹ s⁻¹]
–	–	–	CC(C)CC[C@@H](O)[C@](C)(O)[C@H]1CC[C@H]2[C@@H]3CC=C4C[C@@H](O)CC[C@]4(C)[C@H]3CC[C@]12C [20R,22R-(OH)2 Chol, (20R,22R)-Cholest-5-ene-3β,20,22-triol]	0.04 ± 0.01	0.03 ± 0.02	1.7	0.55	500000	0.39	530000	–	–	–	–	–	–	–
–	–	–	CC(C)CC[C@H](O)[C@](C)(O)[C@H]1CC[C@H]2[C@@H]3CC=C4C[C@@H](O)CC[C@]4(C)[C@H]3CC[C@]12C [20R,22S-(OH)2 Chol, (20R,22S)-Cholest-5-ene 3β,20,22-triol]	0.09 ± 0.02	0.12 ± 0.03	–	–	–	–	–	–	–	–	–	–	–	–
–	–	–	CC(C)CC[C@@H](O)[C@@H](C)[C@H]1CC[C@H]2[C@@H]3CC=C4C[C@@H](O)CC[C@]4(C)[C@H]3CC[C@]12C [22R-OH Chol, 22R-hydroxycholesterol]	–	–	1.5	0.4	500000	–	–	~0.02	0.02 ± 0.003	0.02 ± 0.01	0.04	530000	0.044	–
–	–	–	CC(C)CCC[C@@H](C)[C@H]1CC[C@H]2[C@@H]3CC=C4C[C@@H](O)CC[C@]4(C)[C@H]3CC[C@]12C [Cholesterol]	0.11 ± 0.01	0.12 ± 0.01	0.12	0.04	500000	–	–	–	–	–	0.24	–	–	530000
530000	500000	0.55	CC(=O)[C@H]1CC[C@H]2[C@@H]3CC=C4C[C@@H](O)CC[C@]4(C)[C@H]3CC[C@]12C [Pregnenolone]	0.56 ± 0.12	0.48 ± 0.22	–	–	–	–	–	–	–	–	–	–	–	–
